Results from ChEMBL document CHEMBL1140671, “Interaction of O-(undec-10-en)-yl-D-glucose derivatives with the Plasmodium falciparum hexose transporter (PfHT)” (Bioorg Med Chem Lett, 2007).
Activity calls are given as the source filed them. No cut-off for these calls is given here.

Tests used:
Hexose transporter 1 = molecular target: T1, Hexose transporter 1 (Plasmodium falciparum, UniProt O97467); test: Inhibition of [3H]glucose uptake at Plasmodium falciparum HT expressed in Xenopus laevis oocytes; type: cell-based, Oocyte
T1 sequence (O97467 whole entry): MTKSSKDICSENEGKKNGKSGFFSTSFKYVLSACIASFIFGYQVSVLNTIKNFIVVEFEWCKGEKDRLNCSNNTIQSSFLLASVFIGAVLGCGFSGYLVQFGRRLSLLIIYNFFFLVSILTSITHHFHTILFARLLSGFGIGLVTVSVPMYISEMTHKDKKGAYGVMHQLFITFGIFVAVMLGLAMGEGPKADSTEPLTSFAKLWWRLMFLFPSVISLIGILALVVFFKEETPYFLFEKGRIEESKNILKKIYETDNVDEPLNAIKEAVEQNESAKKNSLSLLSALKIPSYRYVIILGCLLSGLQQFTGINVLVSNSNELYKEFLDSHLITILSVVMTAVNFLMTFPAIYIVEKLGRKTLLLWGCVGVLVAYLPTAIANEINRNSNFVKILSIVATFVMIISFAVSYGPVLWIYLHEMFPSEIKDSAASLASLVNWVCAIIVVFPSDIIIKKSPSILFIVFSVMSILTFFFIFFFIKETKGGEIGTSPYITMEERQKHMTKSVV

[1] = molecular target: T2, Solute carrier family 2, facilitated glucose transporter member 1 (Homo sapiens) (UniProt P11166); test: (§1) Inhibition of [3H]glucose uptake at mammalian GLUT1 expressed in Xenopus laevis oocytes; type: cell-based; conditions: Oocyte
T2 sequence (whole entry): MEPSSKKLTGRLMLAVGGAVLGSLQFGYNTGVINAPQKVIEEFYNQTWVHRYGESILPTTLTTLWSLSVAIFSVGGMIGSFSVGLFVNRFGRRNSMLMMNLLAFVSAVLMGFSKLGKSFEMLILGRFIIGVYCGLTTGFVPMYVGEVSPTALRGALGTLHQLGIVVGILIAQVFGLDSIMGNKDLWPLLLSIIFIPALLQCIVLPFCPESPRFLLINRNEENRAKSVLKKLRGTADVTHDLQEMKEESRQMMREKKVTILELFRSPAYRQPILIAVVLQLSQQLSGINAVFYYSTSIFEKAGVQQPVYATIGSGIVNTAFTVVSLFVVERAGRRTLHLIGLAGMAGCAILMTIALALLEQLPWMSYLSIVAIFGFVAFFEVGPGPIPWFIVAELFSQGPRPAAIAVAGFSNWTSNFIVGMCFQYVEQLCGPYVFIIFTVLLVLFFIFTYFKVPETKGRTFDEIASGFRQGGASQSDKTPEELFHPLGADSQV

Plasmodium falciparum = test: Antiplasmodial activity against Plasmodium falciparum 3D7; type: functional, organism-based
[2] = molecular target: T3, Solute carrier family 2, facilitated glucose transporter member 1 (Homo sapiens, UniProt P11166); test: as §1; type: cell-based, Oocyte
T3 sequence (P11166 whole entry): T2 sequence (whole entry)

SMILES	Ki (Hexose transporter 1)	Activity [1]	IC50 (Plasmodium falciparum)	Ki [2]
C=CCCCCCCCCCO[C@H]1O[C@H]([C@H](O)CO)[C@H](O)[C@H]1O	> 500 µM	inactive		
C=CCCCCCCCCCO[C@@H]1O[C@H]([C@H](O)CO)[C@H](O)[C@H]1O	> 500 µM	inactive		
C=CCCCCCCCCCOC[C@H]1OC(O)[C@H](O)[C@@H](O)[C@@H]1O (stereo partly drawn)	2000 µM			400 µM
C=CCCCCCCCCCO[C@@H]1O[C@H](CO)[C@@H](O)[C@H](O)[C@H]1O	> 500 µM			> 500 µM
C=CCCCCCCCCCO[C@H](CO)[C@H]1OC(O)[C@H](O)[C@H]1O (stereo partly drawn)	1500 µM	inactive		

The remaining lines, values ahead:

Ki (Hexose transporter 1)	Activity [1]	IC50 (Plasmodium falciparum)	Ki [2]	SMILES
2 µM	inactive	8.2 µM		C=CCCCCCCCCCO[C@H]1C(O)O[C@H](CO)[C@@H](O)[C@@H]1O (stereo partly drawn)
> 500 µM	inactive			C=CCCCCCCCCCO[C@H]1O[C@H](CO)[C@@H](O)[C@H](O)[C@H]1O
26 µM		123 µM	98 µM	C=CCCCCCCCCCO[C@H]1[C@H](O)[C@@H](CO)OC(O)[C@@H]1O (stereo partly drawn)
